This is an account of results in US5475016A, “Sulphonylbenzyl-substituted imidazolypropenoic acid derivatives” (Bayer Aktiengesellschaft, priority 1992, dated 1995).

What is called IC50 is the concentration at which inhibition is half-maximal. The Ki is the equilibrium dissociation constant of an inhibitor or competing ligand from its target. The low end stands for tighter binding, the high end for weaker binding. As usually defined, the inhibition is the drop in the measured response relative to a control, in per cent. Low values mean a response near the control, high ones a response far below the control.

The test system of one test is Angiotensin II-infused rat. Put plainly: Blood pressure measurements on the angiotensin II-infused rat. As to conditions: 0.1 mg/kg p.o.; angiotensin II infusion 0.3 μg/kg/min; average values. Format: in vivo, male Wistar rats. The procedure:
Blood Pressure Measurements on the Angiotensin II-Infused Rat
Male Wistar rats (Moellegaard, Copenhagen, Denmark) having a body weight of 300-350 g are anaesthetised with thiopental (100 mg/kg i.p.). After tracheotomy, a catheter is inserted in the femoral artery for blood pressure measurement and a catheter for angiotensin II infusion and a catheter for substance administration are inserted in the femoral veins. After administration of the ganglionic blocker pentolinium (5 mg/kg i.v.), the angiotensin II infusion (0.3 μg/kg/min) is started. As soon as the blood pressure values have reached a stable plateau, the test substances are administered either intravenously or orally as a suspension or solution in 0.5% Tylose.
Turning to `CCCCc1nc(Cl)c(C=C(CC2CCCCC2)C(=O)O)n1Cc1ccc(S(=O)(=O)N2CCC[C@H]2C(=O)O)cc1` [Example 23], the “Blood pressure measurement (blood pressure change)” value was -17 mm Hg.

Turning to `CCCCc1ncc(C=C(CC(C)C)C(=O)OCC)n1Cc1ccc(S(=O)(=O)N2CCC[C@H]2C(=O)O)cc1Cl` [Example 41], the “Blood pressure measurement (blood pressure change)” value is listed as -11 mm Hg.

For the molecule `CCCCc1ncc(C=C(CC(C)C)C(=O)O)n1Cc1ccc(S(=O)(=O)N2CCC[C@H]2C(=O)O)cc1Cl` [Example 43], the “Blood pressure measurement (blood pressure change)” value was -10 mm Hg.

Another test has as its system isolated aorta rings of rabbits, contraction induced by angiotensin II (AII). Put plainly: Inhibition of the vascular contraction in isolated aorta rings of rabbits in vitro, contraction induced by angiotensin II. Format: cell-based, rabbit. As to conditions: Oryctolagus cuniculus, effect at the 3rd = submaximal agonist concentration, read-out: IC50 against contractions induced by: AII. The procedure:
Investigation of the Inhibition of the Contraction Induced with Agonists
Rabbits of both sexes are anaesthetised by a blow to the neck and bled out, or alternatively anaesthetised with Nembutal (about 60-80 mg/kg i.v.) and sacrificed by opening the thorax. The thorax aorta is taken out, freed from adhering connective tissue, divided into 1.5 mm-wide ring segments and these are individually transferred under an initial loading of about 3.5 g to 10-ml organ baths containing 95% O2 /5% CO2 -aerated Krebs-Henseleit nutrient solution, thermostated at 37° C., of the following composition: 119 mmol/l NaCl; 2.5 mmol/l CaCl2 ×2H2 O; 1.2 mmol/l KH2 PO4; 10 mmol/l glucose; 4.8 mmol/l KCl; 1.4 mmol/l MgSO4 ×7 H2 O and 25 mmol/l NaHCO3.
The contractions are detected isometrically by Statham UC2 cells by means of a bridge amplifier (ifd Mulheim or DSM Aalen) and digitised and evaluated by means of an A/D converter (System 570, Keithley, Munich). The implementation of agonist dose-response curves (DRC) is carried out hourly. With each DRC, 3 or 4 individual concentrations are applied to the baths at 4-min intervals. After the end of the DRC and subsequent washing-out cycles (16 times, in each case about 5 sec/min with the abovementioned nutrient solution), a 28-minute rest or incubation phase follows, in the course of which the contractions as a rule reach the starting value again.
The height of, in the normal case, the 3rd DRC is used as a reference quantity for the assessment of the test substance to be investigated in further runs, which test substance in the following DRCs is applied at the start of the incubation time to the baths, in each case in an increasing dose. Each aorta ring is in this case stimulated for the whole day, always with the same agonist.
Agonists and their Standard Concentrations (Administration Volume Per Individual Dose=100 μl):
For the calculation of the IC50 (concentration at which the substance to be investigated causes a 50% inhibition), the effect in each case at the 3rd=submaximal agonist concentration is used as a basis.
In the case of `CCCCc1nc(Cl)c(C=C(CC2CCCC2)C(=O)OC)n1Cc1ccc(S(=O)(=O)N2CCCCC2C(=O)O)cc1Cl` (racemic) [Example 2, rac-4-{[2-Butyl-4-chloro-5-(3-cyclopentyl-2-methoxycarbonylprop-1-enyl)imidazolyl]methyl}-3-chlorobenzenesulphonyl-N-(2-carboxy)piperidinide], the half-inhibitory concentration (IC50) was 11 nM.

In the case of `CCCCc1nc(Cl)c(C=C(CC2CCCC2)C(=O)O)n1Cc1ccc(S(=O)(=O)N2CCC[C@H]2C(=O)O)cc1` [Example 19], the IC50 stood at 40 nM.

As for `CCCCc1nc(Cl)c(C=C(CC2CCCCC2)C(=O)O)n1Cc1ccc(S(=O)(=O)N2CCC[C@H]2C(=O)O)cc1Cl` [Example 24], the IC50 is 1 nM.

For the molecule `CCCCc1ncc(C=C(CCC)C(=O)O)n1Cc1ccc(S(=O)(=O)N2CCC[C@H]2C(=O)O)cc1Cl` [Example 39], the IC50 amounted to 4 nM.

`CCCCc1ncc(C=C(CC(C)C)C(=O)O)n1Cc1ccc(S(=O)(=O)N2CCC[C@H]2C(=O)O)cc1Cl` [Example 43]: the IC50 was found to be 3 nM.

As for `CCCCc1ncc(C=C(CC2CCCC2)C(=O)O)n1Cc1ccc(S(=O)(=O)N2CCC[C@H]2C(=O)O)cc1Cl` [Example 47], the IC50 turned out to be 4 nM.

As for `CCCCc1ncc(C=C(Cc2cccs2)C(=O)OC)n1Cc1ccc(S(=O)(=O)N2CCC[C@H]2C(=O)O)cc1Cl` [Example 53], the IC50 was determined as 6 nM.

In the case of `CCCCc1ncc(C=C(Cc2cccs2)C(=O)O)n1Cc1ccc(S(=O)(=O)N2CCC[C@H]2C(=O)O)cc1Cl` [Example 55], the IC50 was 3 nM.

For the molecule `CCCCc1ncc(C=C(Cc2ccc(F)cc2)C(=O)OC)n1Cc1ccc(S(=O)(=O)N2CCC[C@H]2C(=O)O)cc1Cl` [Example 57], the IC50 came to 6 nM.

Another test has as its target T1, Angiotensin II receptor (Bos taurus, UniProt P25104).
T1 construct: from tissue; host or cells: bovine adrenal gland cortex, partially purified membrane fractions
T1 sequence (P25104 1-359): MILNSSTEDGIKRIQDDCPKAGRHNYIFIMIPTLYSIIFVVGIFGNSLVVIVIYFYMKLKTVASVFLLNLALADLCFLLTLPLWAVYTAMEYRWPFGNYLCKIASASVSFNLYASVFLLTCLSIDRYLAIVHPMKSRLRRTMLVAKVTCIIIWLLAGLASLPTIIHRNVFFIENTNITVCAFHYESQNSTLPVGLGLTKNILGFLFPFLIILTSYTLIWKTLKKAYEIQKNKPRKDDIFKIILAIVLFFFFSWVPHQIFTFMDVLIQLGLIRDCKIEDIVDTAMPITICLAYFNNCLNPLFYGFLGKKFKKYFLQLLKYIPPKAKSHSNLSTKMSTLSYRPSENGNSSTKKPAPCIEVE
The test can be described thus: Interaction with the angiotensin II receptor on membrane fractions of the adrenal gland cortex (cattle), 3H-angiotensin II binding. The following applies: bovine adrenal gland cortex membranes, 3H-angiotensin II 3-5 nM, 60 min at room temperature. The source says: Interaction of the Compounds According to the Invention with the Angiotensin II Receptor on Membrane Fractions of the Adrenal Gland Cortex (Cattle)
Adrenal gland cortices of cattle (AGC), which have been freshly removed and carefully freed from gland medulla, are comminuted in sucrose solution (0.32M) with the aid of an Ultra-Turrax (Janke & Kunkel, Staufen i.B.) to give a coarse membrane homogenate and are partially purified in two centrifugation steps to give membrane fractions. The receptor binding investigations are carried out on partially purified membrane fractions of bovine AGC using radioactive angiotensin II in an assay volume of 0.25 ml, which in detail contains the partially purified membranes (50-80 μg), ^3 H-angiotensin II (3-5 nM), test buffer solution (50 mM tris, pH 7.2, 5 mM MgCl2, 0.25% BSA) and the substances to be investigated. After an incubation time of 60 min at room temperature, the unbound radioactivity of the samples is separated by means of moistened glass fibre filters (Whatman GF/C) and the bound radioactivity is measured […] in a scintillation cocktail after washing the protein with ice-cold buffer solution (50 mM tris/HCl, pH 7.4, 5% PEG 6000). The analysis of the raw data was carried out using computer programs to give Ki or IC50 values (Ki : IC50 values corrected for the radioactivity used; IC50 values: concentration at which the substance to be investigated causes a 50% inhibition of the specific binding of the radioligand).
In turn, `CCCCc1nc(Cl)c(C=C(CC2CCCC2)C(=O)O)n1Cc1ccc(S(=O)(=O)N2CCCCC2)cc1` [Example 9] yielded a Ki of 100 nM.

On to `CCCCc1nc(Cl)c(C=C(CC2CCCCC2)C(=O)O)n1Cc1ccc(S(=O)(=O)N2CCCCC2)cc1` [Example 10], for which the inhibition constant Ki was 40 nM.

`CCCCc1nc(Cl)c(C=C(CC2CCCC2)C(=O)O)n1Cc1ccc(S(=O)(=O)N2CCCCC2C(=O)O)cc1Cl` (stereo not drawn) [Example 20] gave a Ki of 40 nM.

In the case of `CCCCc1nc(Cl)c(C=C(Cc2cccs2)C(=O)OC)n1Cc1ccc(S(=O)(=O)N2CCCCC2C(=O)OC(C)(C)C)cc1` (stereo not drawn) [Example 30], the Ki worked out at 120 nM.

A further test concerns smooth muscle cells. The test can be described thus: Inhibition of the proliferation of smooth muscle cells (3H-thymidine incorporation). The following applies: 10^-6 M. Format: cell-based, rats or pigs. The procedure:
Investigation of Inhibition of the Proliferation of Smooth Muscle Cells by the Compounds According to the Invention
To determine the antiproliferative action of the compounds, smooth muscle cells are used which have been obtained from the aortas of rats or pigs by the media explant technique [R. Ross, J. Cell. Biol. 50, 172, 1971]. The cells are inoculated into suitable culture dishes, as a rule 24-hole plates, and cultured at 37° C. in 5% CO2 for 2-3 days in Medium 199 containing 7.5% FCS and 7.5% NCS, 2 mM L-glutamine and 15 mM HEPES, pH 7.4. After this, the cells are synchronised by withdrawal of serum for 2-3 days and then stimulated into growth with AII, serum or other factors. At the same time, test compounds are added. After 16-20 hours, 1 μCi of ^3 H-thymidine is added and the incorporation of this substance into the TCA-precipitable DNA of the cells is determined after a further 4 hours.
(In general: Dividing cells build labelled thymidine or BrdU into new DNA.)
Turning to `CCCCc1nc(Cl)c(C=CC(=O)O)n1Cc1ccc(S(=O)(=O)N2CCCC2)cc1` [Example 6], at 1 µM the inhibition was 70%.

`CCCCc1nc(Cl)c(C=C(Cc2cccs2)C(=O)OC)n1Cc1ccc(S(=O)(=O)N2CCCCC2)cc1` [Example 27] had an inhibition at 1 µM of 30%.
